The results in this text go back to ChEMBL document CHEMBL1201862, “PubChem BioAssay data set” (2004).

Structures are written as SMILES.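 All cell lines were grown in 96-well plates and treated with compound for 48 hours. GI50 is the concentration that inhibits growth by half.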 Calls of active or inactive are those of the source. Rule as the data show it: active = GI50 up to about 1.1 µM and inactive = higher.

Test systems include SK-MEL-5; BT-549; NCI-H460; MDA-MB-435; HCT-15; ACHN; HOP-62; SF-295; SN12C; EKVX; NCI-H522; IGROV-1; SK-MEL-2; SK-MEL-28; MCF7; HCT-116; OVCAR-8; KM12; NCI-H226.
What all share (assay): growth of human tumour cells (NCI), 48 h

Take `COc1ccc(-c2cc(-c3ccccc3)nc(N)c2-c2ccc3ccccc3c2)cc1`: the GI50 is 1.77 µM (inactive) in the assay with SK-MEL-5; 1.64 µM (inactive) with BT-549; 1.52 µM (inactive) with NCI-H460; 2.11 µM (inactive) in the assay with MDA-MB-435; 1.54 µM in the assay with HCT-15; 2.05 µM (inactive) in the assay with ACHN. Besides, the GI50 with HOP-62 is 2.3 µM (inactive); in the assay with SF-295 it was 1.87 µM (inactive); in the assay on SN12C, 1.86 µM (inactive); with EKVX, 1.83 µM (inactive); in the assay on NCI-H522 it was < 0.01 µM (active); in the assay on IGROV-1, 1.68 µM (inactive). Moreover, the GI50 is 1.82 µM (inactive) with SK-MEL-2; 1.95 µM (inactive) with SK-MEL-28; 1.83 µM (inactive) with MCF7; 1.24 µM (inactive) in the assay with HCT-116; 1.66 µM (inactive) in the assay on OVCAR-8; 1.73 µM (inactive) with KM12. Also, the GI50 in the assay with NCI-H226 is 1.5 µM (inactive).
Take `Cc1ccc(CC(Cc2ccc(C)cc2C(=O)O)C(=O)O)cc1` (stereo not drawn): the GI50 was > 100 µM (inactive) in the assay with SK-MEL-5; > 100 µM (inactive) in the assay with BT-549; > 100 µM (inactive) in the assay with NCI-H460; > 100 µM (inactive) in the assay on MDA-MB-435; greater than 100 µM with HCT-15; > 100 µM (inactive) in the assay on ACHN. Besides, the GI50 in the assay on HOP-62, in the assay with SF-295, in the assay with SN12C, in the assay on EKVX, in the assay on NCI-H522 and in the assay with IGROV-1 was > 100 µM (inactive) each time. Also, the GI50 in the assay with SK-MEL-2, in the assay with SK-MEL-28, in the assay with MCF7, in the assay on HCT-116, in the assay with OVCAR-8 and in the assay on KM12 was > 100 µM (inactive) in each case. In the assay with NCI-H226, the GI50 is > 100 µM (inactive).
In the case of `C\C(=N/N=C1/C(=C\N(C)C)C(=O)NC(=O)N1C)c1ccc(Cl)cc1`, the GI50 with SK-MEL-5 was > 100 µM (inactive); with BT-549, > 100 µM (inactive); in the assay with NCI-H460, > 100 µM (inactive); with MDA-MB-435, 37.6 µM (inactive); in the assay on HCT-15 it was greater than 100 µM; in the assay on ACHN, > 100 µM (inactive). Also, the GI50 is > 100 µM (inactive) in the assay on HOP-62; 54.6 µM (inactive) with SF-295; > 100 µM (inactive) in the assay with SN12C; > 100 µM (inactive) in the assay with EKVX; 62.2 µM (inactive) with NCI-H522; 53 µM (inactive) in the assay on IGROV-1. Further, the GI50 with SK-MEL-2 is 57.9 µM (inactive); with SK-MEL-28, > 100 µM (inactive); in the assay on MCF7, > 100 µM (inactive); in the assay with HCT-116, 74.1 µM (inactive); in the assay on OVCAR-8 it was > 100 µM (inactive); with KM12, 44.6 µM (inactive). For the same compound, the GI50 in the assay with NCI-H226 is 68.5 µM (inactive).
Consider `Cc1cc(=O)[nH]c2cc(NC(=O)C(C)NC(=O)C(C)NC(=O)C(C)NC(=O)OC(C)(C)C)ccc12` (stereo not drawn), for which the GI50 in the assay with SK-MEL-5 is > 15 µM (inactive); with BT-549, > 15 µM (inactive); in the assay with NCI-H460, > 15 µM (inactive); with MDA-MB-435, > 15 µM (inactive); in the assay with HCT-15 it was greater than 15 µM; in the assay on ACHN it was > 15 µM (inactive). The GI50 in the assay on HOP-62, in the assay on SF-295, in the assay with SN12C, with EKVX, in the assay with NCI-H522 and in the assay with IGROV-1 was > 15 µM (inactive) each time. The GI50 with SK-MEL-2, with SK-MEL-28, in the assay with MCF7, with HCT-116, in the assay on OVCAR-8 and in the assay with KM12 was > 15 µM (inactive) in each case. Further, the GI50 in the assay with NCI-H226 is > 15 µM (inactive).
`CN(NC(=O)/C(=C/C=C/c1ccccc1)NC(=O)c1ccccc1)C1=C(Cl)C(=O)[N+](c2ccccc2)=CC1`: the GI50 was 14.4 µM (inactive) in the assay on SK-MEL-5; 22.5 µM (inactive) in the assay on BT-549; 37.6 µM (inactive) with NCI-H460; 17 µM (inactive) with MDA-MB-435; 24.2 µM in the assay on HCT-15; 26.7 µM (inactive) in the assay with ACHN. Besides, the GI50 with HOP-62 is 21.7 µM (inactive); with SF-295 it was 35 µM (inactive); in the assay with SN12C, 24.8 µM (inactive); in the assay on EKVX, 35.8 µM (inactive); in the assay with NCI-H522, 23.3 µM (inactive); with IGROV-1, 12.1 µM (inactive). The GI50 in the assay on SK-MEL-2 is 26.2 µM (inactive); in the assay on SK-MEL-28, 16.9 µM (inactive); with MCF7 it was 16.7 µM (inactive); with HCT-116, 20.1 µM (inactive); with OVCAR-8, 21.1 µM (inactive); in the assay with KM12, 16.7 µM (inactive). Moreover, in the assay with NCI-H226, the GI50 is 17.9 µM (inactive).
`CCOP(=O)(OCC)/C(C#N)=C/c1ccnc2ccccc12`: the GI50 in the assay on SK-MEL-5 is 23.3 µM (inactive); with BT-549 it was 23.9 µM (inactive); in the assay with NCI-H460 it was 43.6 µM (inactive); in the assay on MDA-MB-435, 16.4 µM (inactive); in the assay with HCT-15, 21.3 µM; in the assay with ACHN it was 43.6 µM (inactive). Moreover, the GI50 with HOP-62 was 40.8 µM (inactive); with SF-295, 24.2 µM (inactive); with SN12C, 28.6 µM (inactive); in the assay with EKVX, 53.3 µM (inactive); with NCI-H522, 21.2 µM (inactive); with IGROV-1, 45 µM (inactive). Besides, the GI50 with SK-MEL-2 is 25 µM (inactive); in the assay on SK-MEL-28 it was 34.6 µM (inactive); with MCF7 it was 18.8 µM (inactive); with HCT-116, 3.27 µM (inactive); with OVCAR-8 it was 15 µM (inactive); in the assay with KM12, 27.2 µM (inactive). Besides, the GI50 in the assay with NCI-H226 is 24.8 µM (inactive).
Turning to `CC1=C(/C=C/C(C)=C/C=C/C(C)=C/C(=O)OCC2OC(n3cc(F)c(=O)[nH]c3=O)CC2OC(=O)/C=C(C)/C=C/C=C(C)/C=C/C2=C(C)CCCC2(C)C)C(C)(C)CCC1` (stereo not drawn), the GI50 in the assay with SK-MEL-5 was 3.08 µM (inactive); in the assay with BT-549, 29.6 µM (inactive); with NCI-H460, 0.0659 µM (active); with MDA-MB-435 it was 13.3 µM (inactive); in the assay on HCT-15 it was 13.2 µM; in the assay with ACHN, 0.418 µM (active). Besides, the GI50 with HOP-62 is 0.306 µM (active); in the assay with SF-295 it was 0.301 µM (active); in the assay with SN12C, 7.43 µM (inactive); in the assay on EKVX, > 54.3 µM (inactive); with NCI-H522, 8.2 µM (inactive); with IGROV-1 it was 6.32 µM (inactive). In addition, the GI50 was 58.6 µM (inactive) with SK-MEL-2; 20.9 µM (inactive) in the assay on SK-MEL-28; 0.225 µM (active) with MCF7; 2.82 µM (inactive) in the assay with HCT-116; 1.71 µM (inactive) in the assay with OVCAR-8; 23.9 µM (inactive) in the assay with KM12. Further, the GI50 in the assay with NCI-H226 is 37.8 µM (inactive).
`Cc1ccc2c(c1)nc1n2C(N)=Nc2ccccc2S1`: the GI50 in the assay on SK-MEL-5 is 28.2 µM (inactive); in the assay on BT-549, > 100 µM (inactive); with NCI-H460, 5.92 µM (inactive); in the assay with MDA-MB-435, 71.1 µM (inactive); in the assay with HCT-15 it was 24.2 µM; in the assay with ACHN, 59.7 µM (inactive). In addition, the GI50 with HOP-62 was > 83.4 µM (inactive); with SF-295, 47.6 µM (inactive); in the assay with SN12C, > 92.7 µM (inactive); with EKVX, 36.4 µM (inactive); in the assay with NCI-H522 it was > 63.2 µM (inactive); in the assay on IGROV-1 it was 6.4 µM (inactive). The GI50 in the assay with SK-MEL-2 is > 100 µM (inactive); with SK-MEL-28, > 100 µM (inactive); with MCF7 it was > 27.2 µM (inactive); with HCT-116 it was 4.4 µM (inactive); in the assay on OVCAR-8 it was 25.5 µM (inactive); in the assay on KM12, 43.8 µM (inactive). For the same compound, the GI50 in the assay with NCI-H226 was 30.3 µM (inactive).
Turning to `O=CNC(Cc1c[nH]cn1)C(=O)O` (stereo not drawn), the GI50 is > 100 µM (inactive) in the assay with SK-MEL-5; > 100 µM (inactive) in the assay on BT-549; > 100 µM (inactive) in the assay on NCI-H460; > 100 µM (inactive) in the assay on MDA-MB-435; greater than 100 µM in the assay on HCT-15; > 100 µM (inactive) in the assay on ACHN. Besides, the GI50 with HOP-62, in the assay on SF-295, with SN12C, in the assay with EKVX, in the assay on NCI-H522 and in the assay with IGROV-1 was > 100 µM (inactive) each time. Moreover, the GI50 with SK-MEL-2, with SK-MEL-28, in the assay on MCF7, in the assay on HCT-116, in the assay with OVCAR-8 and in the assay with KM12 was > 100 µM (inactive) each time. In addition, the GI50 in the assay on NCI-H226 was > 100 µM (inactive).
`C/C(=N\Nc1nc2ccccc2s1)c1cccnn1`: the GI50 in the assay with SK-MEL-5 was 1.31 µM (inactive); in the assay on BT-549 it was 5.32 µM (inactive); with NCI-H460, 2.65 µM (inactive); in the assay with MDA-MB-435 it was 4.26 µM (inactive); in the assay with HCT-15, 0.333 µM; in the assay with ACHN, 0.718 µM (active). Further, the GI50 with HOP-62 was 1.63 µM (inactive); in the assay with SF-295 it was 2.31 µM (inactive); in the assay with SN12C, 2.42 µM (inactive); with EKVX it was 0.753 µM (active); in the assay on NCI-H522 it was 1.72 µM (inactive); in the assay on IGROV-1 it was 0.581 µM (active). The GI50 is 3.05 µM (inactive) in the assay on SK-MEL-2; 4.56 µM (inactive) with SK-MEL-28; 2.75 µM (inactive) in the assay on MCF7; 2.05 µM (inactive) with HCT-116; 1.66 µM (inactive) with OVCAR-8; 2.77 µM (inactive) in the assay on KM12. Besides, the GI50 in the assay on NCI-H226 is 2.75 µM (inactive).
On to `O=c1cc(O)c2c(O)cc(O)cc2o1`, for which the GI50 is > 100 µM (inactive) with SK-MEL-5; > 100 µM (inactive) with BT-549; > 100 µM (inactive) with NCI-H460; > 100 µM (inactive) in the assay on MDA-MB-435; greater than 100 µM in the assay with HCT-15; > 100 µM (inactive) in the assay with ACHN. The GI50 with HOP-62, in the assay with SF-295, with SN12C, in the assay with EKVX, in the assay with NCI-H522 and with IGROV-1 was > 100 µM (inactive) in each case. The GI50 with SK-MEL-2, with SK-MEL-28, in the assay with MCF7, with HCT-116, with OVCAR-8 and in the assay with NCI-H226 was > 100 µM (inactive) each time.
